Test results from US20250170105A1, “ASSOCIATION WITH ANTIBIOTIC ACTIVITY, PHARMACEUTICAL COMPOSITIONS CONTAINING IT AND THEIR USE IN THE TREATMENT OF INFECTIONS” (VETAGRO INTERNATIONAL S.R.L., priority 2022, published 2025).
Like-named read-outs stand apart in the source and are kept apart here.

Tests used:
Type in all cases: cell-based
[1] = tested on: Streptococcus suis 701; experiment: Individual tests, microdilution MIC
Protocol: (§1) Strains were stored at −80° C. in appropriate media with glycerol, thawed and cultured according to conventional practices.
(§2) The ABs shown in Tables 2 and 3 below, all obtained from Aplha Aesar, were tested. The OAs used are shown in Tables 2 and 3 below, all obtained from Merck. The stock solutions were prepared appropriately and in appropriate way and media for the different strains and could contain 3.5% ethanol to increase solubility.
(§3) The tests were conducted using the microdilution method in a 96-well plate to be microtitered with the medium and culture conditions appropriate for the strains. Bacterial strains (10^5-10^6 CFU/ml) were incubated with the compounds to be tested, while control strains, when necessary, were grown in media containing 3.5% ethanol to exclude an inhibitory effect of any ethanol present in the stock solutions. After incubation, MIC was defined as the lowest concentration resulting in zero absorbance at 630 nm, recorded with Varioskan® LUX Multimode Microplat Reader (Thermo Fisher Scientific). For each test, the percentage of inhibition (%) was calculated with respect to the relative control.
(§4) ABs were tested in the range 64-0.13 ppm, OAs in the range […] and NICs in the range 7.5-0.06 nM.

[2] = tested on: Escherichia Coli K88 95; experiment: Individual tests, microdilution MIC; conditions: for MIC: Escherichia coli
Protocol: as §1, §2, §3, §4

[3] = tested on: Streptococcus suis 702; experiment: Individual tests, microdilution MIC
Protocol: as §1, §2, §3, §4

[4] = tested on: Escherichia coli K88 97; experiment: Individual tests, microdilution MIC; conditions: for MIC: Escherichia coli
Protocol: as §1, §2, §3, §4

[5] = tested on: Streptococcus suis 701; experiment: Combination test, checkerboard, % inhibition; conditions: S. suis 701
Protocol: as §1, §3
(§5) After phase 1, the strains were tested with associations at sub-effective doses of AB and OA or NIC in a 2×2 checkerboard model. Specifically, two sub-effective doses of AB were associated with two sub-effective doses of OA or NIC (half and one-quarter of MICs) as shown in FIG. 1.
(§6) The % indicate the percentage of inhibition (compounds alone and combinations).
(§7) Tables 4 to 7 show the % of inhibition of the components of the associations alone, at the effective concentrations shown in Tables 2 and 3, and at the sub-effective concentrations (half and one-quarter of MICs), and the % of inhibition of the associations.

[6] = tested on: Escherichia Coli K88 95; experiment: Combination test, checkerboard, % inhibition; conditions: E. coli 95
Protocol: as §1, §3, §5, §6, §7

[7] = tested on: Streptococcus suis 702; experiment: Combination test, checkerboard, % inhibition; conditions: S. suis 702
Protocol: as §1, §3, §5, §6, §7

[8] = tested on: Escherichia coli K88 97; experiment: Combination test, checkerboard, % inhibition; conditions: E. coli 97
Protocol: as §1, §3, §5, §6, §7

[9] = Streptococcus suis, S. suis 701, read-out: MIC values
[10] = COLIK8895, E. coli 95, read-out: MIC values
[11] = Streptococcus suis, S. suis 702, read-out: MIC values
[12] = K8897, E. coli 97, read-out: MIC values
[13] = COLIK8895, read-out: MIC values

C=CCc1ccc(O)c(OC)c1 [Eugenolo, eugenol]
MIC [1, 9]: 3.75 mM | MIC [2, 10]: 3.75 mM | MIC [3, 11]: 3.75 mM | MIC [4, 12]: 3.75 mM | % inhibition ([5]; EUG 0.94 mM alone): 6% | % inhibition ([5]; EUG 1.87 mM alone): 27% | % inhibition ([6]; EUG 0.94 mM alone): 31% | % inhibition ([6]; EUG 1.87 mM alone): 44% | % inhibition ([7]; EUG 0.94 mM alone): 9% | % inhibition ([7]; EUG 1.87 mM alone): 12% | % inhibition ([8]; EUG 0.94 mM alone): 26% | % inhibition ([8]; EUG 1.87 mM alone): 34%

colistin [reference compound]
MIC values ([2]; E. coli 95): 32 ppm | MIC values ([4]; E. coli 97): 32 ppm | % inhibition ([6]; COL 4 ppm alone): 3% | % inhibition ([6]; COL 8 ppm alone): 8% | % inhibition ([6]; COL 16 ppm alone): 40% | % inhibition ([8]; COL 4 ppm alone): 10% | % inhibition ([8]; COL 8 ppm alone): 12% | % inhibition ([8]; COL 16 ppm alone): 29%

O=C(O)c1ccccc1 [Benzoic Acid, benzoic acid]
MIC ([1]; Streptococcus suis, 701, read-out: MIC values): 50 mM | MIC [2, 13]: 50 mM | MIC ([3]; Streptococcus suis, 702, read-out: MIC values): 25 mM | MIC ([4]; K8897, read-out: MIC values): 50 mM | % inhibition ([5]; BEN 12.5 mM alone): 22% | % inhibition ([5]; BEN 25 mM alone): 51% | % inhibition ([6]; BEN 12.5 mM alone): 63% | % inhibition ([6]; BEN 25 mM alone): 90% | % inhibition ([7]; BEN 6.25 mM alone): 21% | % inhibition ([7]; BEN 12.5 mM alone): 39% | % inhibition ([8]; BEN 12.5 mM alone): 79% | % inhibition ([8]; BEN 25 mM alone): 97%

Penicillin
MIC values ([1]; S. suis 701): 0.13 ppm | MIC values ([3]; S. suis 702): 0.13 ppm

O=C(O)CC(O)(CC(=O)O)C(=O)O [Citric acid, citric acid]
MIC [1, 9]: 50 mM | MIC [2, 10]: > 100 mM | MIC [3, 11]: 25 mM | MIC [4, 12]: > 100 mM | % inhibition ([5]; CIT 12.5 mM alone): 18% | % inhibition ([5]; CIT 25 mM alone): 36% | % inhibition ([7]; CIT 6.25 mM alone): 12% | % inhibition ([7]; CIT 12.5 mM alone): 43%

CCCCCC(=O)O [Hexanoic acid, hexanoic acid]
MIC [2, 13]: 50 mM | MIC ([4]; K8897, read-out: MIC values): 50 mM | % inhibition ([6]; HEX 12.5 mM alone): 76% | % inhibition ([6]; HEX 25 mM alone): 83% | % inhibition ([8]; HEX 12.5 mM alone): 65% | % inhibition ([8]; HEX 25 mM alone): 83%

CC1(C)S[C@@H]2[C@H](NC(=O)[C@H](N)c3ccccc3)C(=O)N2[C@H]1C(=O)O [Ampicillin]
MIC [1, 9]: 0.25 µg/mL | MIC [3, 11]: 0.25 µg/mL

C[C@H]1c2cccc(O)c2C(=O)C2=C(O)[C@]3(O)C(=O)C(C(N)=O)=C(O)[C@@H](N(C)C)[C@@H]3[C@@H](O)[C@@H]21 [Doxycycline]
MIC [1, 9]: 16 µg/mL | MIC [3, 11]: 0.5 µg/mL

CS(=O)(=O)c1ccc([C@@H](O)[C@@H](CF)NC(=O)C(Cl)Cl)cc1 [Florfenicol]
MIC [1, 9]: 2 µg/mL | MIC [2, 10]: 16 µg/mL | MIC [3, 11]: 2 µg/mL | MIC [4, 12]: > 64 µg/mL

CC1(C)S[C@@H]2[C@H](NC(=O)[C@H](N)c3ccc(O)cc3)C(=O)N2[C@H]1C(=O)O [Amoxicillin]
MIC [1, 9]: 0.5 µg/mL | MIC [2, 10]: > 64 µg/mL | MIC [3, 11]: 0.5 µg/mL | MIC [4, 12]: > 64 µg/mL

CN(C)[C@@H]1C(O)=C(C(N)=O)C(=O)[C@@]2(O)C(O)=C3C(=O)c4c(O)cccc4[C@@](C)(O)[C@H]3C[C@@H]12 [Tetracycline, tetracycline, reference compound]
MIC [1, 9]: 64 µg/mL | MIC [2, 10]: > 64 µg/mL | MIC [3, 11]: 2 µg/mL | MIC [4, 12]: > 64 µg/mL | % inhibition ([5]; TET 16 ppm alone): 11% | % inhibition ([5]; TET 32 ppm alone): 28% | % inhibition ([7]; TET 0.5 ppm alone): 20% | % inhibition ([7]; TET 1 ppm alone): 27%

COc1cc(Cc2cnc(N)nc2N)cc(OC)c1OC [Trimethoprim]
MIC [2, 10]: > 32 µg/mL | MIC [4, 12]: > 32 µg/mL

C=C[C@]1(C)C[C@@H](OC(=O)CSCCN(CC)CC)[C@]2(C)[C@H](C)CC[C@]3(CCC(=O)[C@H]32)[C@@H](C)[C@@H]1O [Tiamulin]
MIC [1, 9]: 4 µg/mL | MIC [3, 11]: 1 µg/mL

neomycin [reference compound]
MIC values ([1]; S. suis 701): 8 ppm | MIC values ([2]; E. coli 95): >64 ppm | MIC values ([3]; S. suis 702): 16 ppm | MIC values ([4]; E. coli 97): >64 ppm | % inhibition ([5]; NEO 2 ppm alone): 6% | % inhibition ([5]; NEO 4 ppm alone): 15% | % inhibition ([7]; NEO 4 ppm alone): 10% | % inhibition ([7]; NEO 8 ppm alone): 16%

CO/N=C(\C(=O)N[C@@H]1C(=O)N2C(C(=O)O)=C(CSC(=O)c3ccco3)CS[C@H]12)c1csc(N)n1 [Ceftiofur]
MIC [1, 9]: 0.5 µg/mL | MIC [2, 10]: 1 µg/mL | MIC [3, 11]: 0.5 µg/mL | MIC [4, 12]: 2 µg/mL

CCN1CCN(c2cc3c(cc2F)c(=O)c(C(=O)O)cn3C2CC2)CC1 [Enrofloxacin]
MIC [1, 9]: 0.5 µg/mL | MIC [2, 10]: 2 µg/mL | MIC [3, 11]: 0.5 µg/mL | MIC [4, 12]: 2 µg/mL

Cc1ccc(C(C)C)c(O)c1 [Thymol, 2-isopropyl-5-methylphenol]
MIC [1, 9]: 1.87 mM | MIC [2, 10]: 1.87 mM | MIC [3, 11]: 1.87 mM | MIC [4, 12]: 1.87 mM | % inhibition ([5]; THY 0.47 mM alone): 0% | % inhibition ([5]; THY 0.94 mM alone): 39% | % inhibition ([6]; THY 0.47 mM alone): 7% | % inhibition ([6]; THY 0.94 mM alone): 18% | % inhibition ([7]; THY 0.47 mM alone): 10% | % inhibition ([7]; THY 0.94 mM alone): 36% | % inhibition ([8]; THY 0.47 mM alone): 8% | % inhibition ([8]; THY 0.94 mM alone): 12%

CC[C@H]1OC(=O)C[C@@H](O)[C@H](C)[C@@H](O[C@@H]2O[C@H](C)[C@@H](O[C@H]3C[C@@](C)(O)[C@@H](O)[C@H](C)O3)[C@H](N(C)C)[C@H]2O)[C@@H](CC=O)C[C@@H](C)C(=O)/C=C/C(C)=C/[C@@H]1CO[C@@H]1O[C@H](C)[C@@H](O)[C@@H](OC)[C@H]1OC [Tylosin]
MIC [1, 9]: 2 µg/mL | MIC [3, 11]: > 64 µg/mL

C/C=C/C=C/C(=O)O [Sorbic Acid, sorbic acid]
MIC [1, 9]: 100 mM | MIC [2, 10]: 50 mM | MIC [3, 11]: 50 mM | MIC [4, 12]: 50 mM | % inhibition ([5]; SOR 25 mM alone): 30% | % inhibition ([5]; SOR 50 mM alone): 56% | % inhibition ([6]; SOR 12.5 mM alone): 69% | % inhibition ([6]; SOR 25 mM alone): 85% | % inhibition ([7]; SOR 12.5 mM alone): 26% | % inhibition ([7]; SOR 25 mM alone): 38% | % inhibition ([8]; SOR 12.5 mM alone): 79% | % inhibition ([8]; SOR 25 mM alone): 93%

Cc1cc(NS(=O)(=O)c2ccc(N)cc2)no1 [Sulfamethoxazole]
MIC [2, 10]: > 608 µg/mL | MIC [4, 12]: > 608 µg/mL
